According to patent US5556744A, “Methods and compositions for diagnosing and treating certain HIV infected patients” (The Trustees of the University of Pennsylvania, priority 1994, dated 1996):

Key:
[1] = test system: maternal HIV+ sera (antibodies); test: RIA / ELISA binding of maternal HIV+ sera to gp120 and gp41 peptides (Example 3); parameters: species or system human
Method in brief: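 Peptides were coated at 10 μg/ml in carbonate buffer pH 9.6 and blocked with 1% BSA. Sera at 1:50 and 1:500 were incubated overnight at 4°C and detected with ¹²⁵I anti-human IgG (RIA) or HRP/TMB at OD450 (ELISA). Specific binding was taken as peptide minus no-peptide wells, scored as a ratio to normal human serum.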

[2] = test system: maternal sera (antibodies); test: ELISA peptide-binding of maternal sera (Example 6); parameters: species or system human
Method in brief: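 Third-trimester maternal sera, from HIV-1 transmitting and non-transmitting mothers, were tested by ELISA against ~16-residue peptides spanning HIV-1 external and transmembrane glycoproteins. Each serum was run with at least 40 peptides, and values are the percentage of sera binding each peptide.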

Sequence: RIQRGPGRAFVTIGK [p18p]
- Percentage of sera samples demonstrating binding to peptide, non-transmitter ([1]; Non-transmitter group, n = 13): 30.7%
- Binding of maternal HIV+ serum to peptide (sera/NHS ratio) ([1]; Serum No. 1, Non-Transmission Group): - (specific OD450 or cpm of sera sample binding to peptide divided by the specific OD450 or cpm of NHS sample binding to peptide, which value is less than 2)
- Binding of maternal HIV+ serum to peptide (sera/NHS ratio) ([1]; Serum No. 2, Non-Transmission Group): - (specific OD450 or cpm of sera sample binding to peptide divided by the specific OD450 or cpm of NHS sample binding to peptide, which value is less than 2)
- Binding of maternal HIV+ serum to peptide (sera/NHS ratio) ([1]; Serum No. 3, Non-Transmission Group): - (specific OD450 or cpm of sera sample binding to peptide divided by the specific OD450 or cpm of NHS sample binding to peptide, which value is less than 2)
- Binding of maternal HIV+ serum to peptide (sera/NHS ratio) ([1]; Serum No. 4, Transmission Group): - (specific OD450 or cpm of sera sample binding to peptide divided by the specific OD450 or cpm of NHS sample binding to peptide, which value is less than 2)
- Binding of maternal HIV+ serum to peptide (sera/NHS ratio) ([1]; Serum No. 5, Transmission Group): - (specific OD450 or cpm of sera sample binding to peptide divided by the specific OD450 or cpm of NHS sample binding to peptide, which value is less than 2)
- Binding of maternal HIV+ serum to peptide (sera/NHS ratio) ([1]; Serum No. 6, Non-Transmission Group): - (specific OD450 or cpm of sera sample binding to peptide divided by the specific OD450 or cpm of NHS sample binding to peptide, which value is less than 2)
- Binding of maternal HIV+ serum to peptide (sera/NHS ratio) ([1]; Serum No. 7, Non-Transmission Group): - (specific OD450 or cpm of sera sample binding to peptide divided by the specific OD450 or cpm of NHS sample binding to peptide, which value is less than 2)
- Binding of maternal HIV+ serum to peptide (sera/NHS ratio) ([1]; Serum No. 8, Non-Transmission Group): - (specific OD450 or cpm of sera sample binding to peptide divided by the specific OD450 or cpm of NHS sample binding to peptide, which value is less than 2)
- Binding of maternal HIV+ serum to peptide (sera/NHS ratio) ([1]; Serum No. 9, Non-Transmission Group): - (specific OD450 or cpm of sera sample binding to peptide divided by the specific OD450 or cpm of NHS sample binding to peptide, which value is less than 2)
- Binding of maternal HIV+ serum to peptide (sera/NHS ratio) ([1]; Serum No. 10, Transmission Group): - (specific OD450 or cpm of sera sample binding to peptide divided by the specific OD450 or cpm of NHS sample binding to peptide, which value is less than 2)
- Binding of maternal HIV+ serum to peptide (sera/NHS ratio) ([1]; Serum No. 11, Non-Transmission Group): - (specific OD450 or cpm of sera sample binding to peptide divided by the specific OD450 or cpm of NHS sample binding to peptide, which value is less than 2)
- Binding of maternal HIV+ serum to peptide (sera/NHS ratio) ([1]; Serum No. 12, Non-Transmission Group): ++ (which value is greater than 3)
- Binding of maternal HIV+ serum to peptide (sera/NHS ratio) ([1]; Serum No. 13, Transmission Group): ++ (which value is greater than 3)
- Binding of maternal HIV+ serum to peptide (sera/NHS ratio) ([1]; Serum No. 14, Transmission Group): ++ (which value is greater than 3)
- Binding of maternal HIV+ serum to peptide (sera/NHS ratio) ([1]; Serum No. 15, Transmission Group): ++ (which value is greater than 3)
- Binding of maternal HIV+ serum to peptide (sera/NHS ratio) ([1]; Serum No. 16, Non-Transmission Group): + (which value is between 2 to 3)
- Binding of maternal HIV+ serum to peptide (sera/NHS ratio) ([1]; Serum No. 17, Non-Transmission Group): ++ (which value is greater than 3)
- Binding of maternal HIV+ serum to peptide (sera/NHS ratio) ([1]; Serum No. 18, Non-Transmission Group): - (specific OD450 or cpm of sera sample binding to peptide divided by the specific OD450 or cpm of NHS sample binding to peptide, which value is less than 2)
- Binding of maternal HIV+ serum to peptide (sera/NHS ratio) ([1]; Serum No. 19, Transmission Group): - (specific OD450 or cpm of sera sample binding to peptide divided by the specific OD450 or cpm of NHS sample binding to peptide, which value is less than 2)
- Binding of maternal HIV+ serum to peptide (sera/NHS ratio) ([1]; Serum No. 20, Non-Transmission Group): + (which value is between 2 to 3)
- Percentage of sera samples demonstrating binding to peptide, transmitter ([1]; Transmitter / transmission group, n = 7): 42.8%
- Percent of the maternal serum samples that bound to the peptide ([1]; all 20 samples): 35%
- Number of Non-Transmitters which bound to peptide ([2]; Non-Transmitters, N = 12): 3
- Percent of Non-Transmitters which bound to peptide ([2]; Non-Transmitters, N = 12): 25%
- Number of Transmitters which bound to peptide ([2]; Transmitters, N = 4): 0
- Percent of Transmitters which bound to peptide ([2]; Transmitters, N = 4): 0%
